According to patent publication US20080312298A1, “Methods for Identification of Modulators of Carm1 Methyl Transferase Activity” (priority 2007, published 2008):

Biological target: T1, CARM1 (Homo sapiens, UniProt Q86X55)
T1 construct: made in house; host or cells: E. coli
T1 sequence (Q86X55 1-608): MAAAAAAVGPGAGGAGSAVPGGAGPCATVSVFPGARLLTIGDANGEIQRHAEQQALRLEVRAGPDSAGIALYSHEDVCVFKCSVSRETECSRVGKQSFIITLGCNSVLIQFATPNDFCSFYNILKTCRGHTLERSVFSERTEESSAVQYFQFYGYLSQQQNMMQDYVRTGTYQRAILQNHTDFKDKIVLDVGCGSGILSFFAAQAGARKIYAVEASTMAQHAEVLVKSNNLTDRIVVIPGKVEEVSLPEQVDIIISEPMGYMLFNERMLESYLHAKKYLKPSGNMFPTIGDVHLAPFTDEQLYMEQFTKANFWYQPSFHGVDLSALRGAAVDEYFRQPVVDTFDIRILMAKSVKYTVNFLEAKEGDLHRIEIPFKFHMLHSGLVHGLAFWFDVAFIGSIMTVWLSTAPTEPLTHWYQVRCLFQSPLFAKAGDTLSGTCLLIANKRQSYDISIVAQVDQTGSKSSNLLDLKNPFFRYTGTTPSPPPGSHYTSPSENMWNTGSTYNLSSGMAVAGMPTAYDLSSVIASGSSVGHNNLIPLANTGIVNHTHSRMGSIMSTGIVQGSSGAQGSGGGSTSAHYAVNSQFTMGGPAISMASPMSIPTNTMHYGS
Assay: CARM1 biochemical assay (scintillation proximity assay, SPA)
Source text: CARM1 biochemical Assay. (e.g. for Determining IC50 Values).
A fusion protein of CARM1 to MBP (Maltose Binding protein), expressed and purified from E. coli, was used to methylate peptides derived from either the N-terminus of histone H3 (acetyl-STGGKAPRKQLATKAARK-biotin) or from PABP1 (acetyl-[…]-biotin). The H3 peptide has two residues R17 and R26 that have been reported to be methylated by CARM1 (Brandon et al., Biochemistry, 2001, 40(19):5747-5756). The PABP1 peptide also contains two arginine residues, R455 and R460, similarly methylated by CARM1 (Lee and Bedford, EMBO Rep. 2002, 3(3):268-73). The methylation reaction was conducted in the presence of tritiated S-Adenosyl-L-Methionine (3H-SAM), 1 μg MBP-CARM1, 250 nM peptide substrate, and assay buffer (50 mM Tris pH 8.0, 0.03% BSA, 3 mM DTT). The reaction was allowed to proceed at room temperature for 75 minutes before being stopped by Stop buffer (25 mM Tris pH 7.4, 100 mM EDTA, 1% Tween 20) and Streptavidin-coated SPA beads (2 mg/ml) (GE Healthcare). The beads were allowed to settle overnight before the signal was counted in a TOPCOUNT. The final SAM concentration in the reaction and the ratio of tritiated to unlabelled SAM was adjusted to give a good signal/noise. […]

mode of inhibition with respect to SAM: SAM competitive | IC50 (at saturating SAM concentrations): low micromolar
SMILES: CNC[C@H](O)c1cccc(O)c1
